Results as given in patent US8507506B2, “Theophylline derivative inhibits osteoporosis” (Kaohsiung Medical University, priority 2011, dated 2013).

Key:
Format in all cases: cell-based
[1] = system: IL-1β secretion by RAW264.7 cells; assay: ELISA, RANKL-induced secretion of IL-1β; settings: RAW264.7, ELISA, FIG. 6
Description: (§1) Under RANKL stimulation, mononuclear RAW264.7 cells can secrete pro-inflammatory cytokines such as TNF-α, IL-1, IL-6, etc. ELISA is used to measure that KMUP-1 influences RANKL to induce the secretion of pro-inflammatory cytokines. […] 10^5 cells were plated per well in 24-well plates. […] After 24 hours reaction, the reaction fluid was centrifuged (13,000 rpm, 4° C., 20 minutes), and then the supernatant was tasted by ELISA kit (R&D system and eBioscience™) to detect the amount of TNF-α, IL-1β, IL-6, and IL-10. The experimental process is followed with the instructions of the kit.

[2] = system: osteoclast-like cells; assay: Pit formation assay (dissolution of osteoclast-like cells); settings: calcium phosphate coated plates, 10 ng/ml RANKL for five days, different concentrations, FIG. 5
Description: In order to confirm the influence of KMUP-1 to the bone dissolution of differentiated osteoclast-like cells, cells are cultured in the plates which are coated calcium phosphate of bone-like matrix in the bottom and are given 10 ng/ml RANKL for five days and different concentration of KMUP-1. According to the result, compared with the control group, in the group which is given 10 ng/ml RANKL alone for 5 days, the osteoclast-like cells have obviously dissolution activity, so the covers at the plate bottom present many holes. […] Subsequently, 100 μl medium with 1,000 cells were added into each well, and the total volume was 300 μl/well. The slides were incubated for 5 days, and the medium and the drugs were renewed every 2 days. After 5 days, the medium was removed, and the cells were washed by ddH2O 3 times. Subsequently, the cells were covered by Bleach solution for staining 5 minutes and then were washed by ddH2O for 5 times. After drying, the cells were took a photo by an optical microscopy (40× and 200×), and Autopano Pro V1.4.2, Kolor, Paris, was used to proceed the pictures taken in 40×.

[3] = system: IL-6 secretion by RAW264.7 cells; assay: ELISA, RANKL-induced secretion of IL-6; settings: RAW264.7, ELISA, FIG. 7(A)
Description: as §1

[4] = system: HMGB1 in RAW264.7 cells; assay: Western blot, RANKL-induced transfer of HMGB1 from nucleus to extracellular space; settings: 5 μM, 7.5 μM and 10 μM for 24 hours, 10 ng/ml RANKL 18 hours, dose dependent, FIGS. 22(B), 23(B), 24(B)
Description: HMGB1 can affect the proliferation and differentiation of osteoclasts, the HMGB1 which originally exists in a cell nuclear is stimulated by RANKL to transfer to cytoplasm or extracellular space, and the HMGB1 in the extracellular space like pro-inflammatory cytokines can regulate the proliferation and differentiation of osteoclasts via RANK/RANKL pathway or other pathways. 10 ng/ml RANKL is used to stimulate RAW264.7 cells, and the extracellular medium, cytoplasm and nucleus are separated at 0 hours, 6 hours, 12 hours, 18 hours and 24 hours, and then via western blot to confirm the expression level of the HMGB1. After stimulating 24 hours, the HMGB1 obviously transfers to the extracellular space from the nucleus and the cytoplasm (FIGS. 22(A), 23(A), and 24(A)). Moreover, when it is stimulated by RANKL for 18 hours, the effect of transferring to the extracellular space and the cytoplasm is most obvious. Different concentrations of KMUP-1 are administrated for 24 hours, and 10 ng/ml RANKL is used to stimulate for 18 hours. […] Nuclear proteins were extracted according to the instructions of NE-PER kit. 2.5×10^6 cells were plated per well in 24-well plates. […] Subsequently, the cells were added by 5.5 μ[…] and shaken for 5 seconds and then put on ice for 1 minute. After that, the cells were shaken again for 5 seconds and centrifuged (10,000 rpm, 4° C., 5 minutes). […]

[5] = system: p38 phosphorylation in RAW264.7 cells; assay: Western blot, phosphorylation of p38 induced by RANKL; settings: 7.5 μM and 10 μM, RANKL 15 minutes, FIG. 11
Description: MAP kinases including ERK, JNK and p38 are stimulated by RANKL to be phosphorylized and further influence the down-stream key transcription factors which induce the differentiation of osteoclast-like cells such as c-Fos, NFATc1, etc. Before estimating the drug effect, 10 ng/ml RANKL are used to induce the phosphorylation of ERK, JNK and p38 at different time points. […] It is shown that KMUP-1 can reduce the activation of MAP kinases induced by RANKL. […] The proteins were collected by scraping and were centrifuged (13,000 rpm, 4° C., 30 minutes). The supernatant was stored in an eppendorf in −80° C. • c) Concentrations of the proteins were examined by Bio-Red DC Protein Assay. After knowing the concentrations, the proteins were diluted to specific concentrations by adding ddH2O. One forth volume of the diluted proteins of sample buffer was added into the diluted proteins and was put in boiled water for 5 min and then was chilled on ice for 5 minutes. After short time centrifugation, the diluted proteins could be injected into wells of a gel. The gel was run at 100 V for 10 minutes until the proteins were driven to the intersection between a loading gel and a running gel. Then, the voltage was swopped to 200 V for 40 minutes. • d) A PVDF membrane was immersed in Methanol for 2 minutes. After two washes in ddH2O, the membrane was immersed in transfer buffer for 15 minutes. […]

Cn1c(=O)c2c(ncn2CCN2CCN(c3ccccc3Cl)CC2)n(C)c1=O [KMUP-1, 7-[2-[4-(2-Chlorophenyl)piperazin-1-yl]ethyl] theophylline]
RANKL-induced secretion of IL-1 [1]: presents a dose dependent inhibition phenomenon
dissolution of osteoclast-like cells (dissolution area) [2]: can inhibit the dissolution of osetocalst-like cells
RANKL-induced secretion of IL-6 [3]: presents a dose dependent inhibition phenomenon
RANKL-induced transfer of HMGB1 to extracellular space from cell nucleus [4]: can inhibit that RANKL induces HMGB1 to transfer to extracellular space from a cell nuclear
phosphorylation of p38 induced by RANKL [5]: can efficiently inhibit the phosphorylation of ERK, JNK and p38 induced by RANKL
